Results published in PMC2248166, “Quantitative peptide binding motifs for 19 human and mouse MHC class I molecules derived using positional scanning combinatorial peptide libraries” (Immunome Research, 2008).
pIC50: −log10 of the molar value. Where a SMILES comes first, the peptide text is derived from it.

These compounds were tested against HLA B*1503 (Homo sapiens, UniProt P01889, A329T/A93T/A95T/C349S/D201E/D98Y/E187L/E204Q/K202T/N87E/Q94N/R155S/R180L/S121R/S35A/V306I/V36M/Y140S/Y91S) (assay: biochemical).
Assay type: binding

| Compound | pIC50 |
| --- | --- |
| CC(C)C[C@H](NC(=O)[C@@H](NC(=O)[C@H](CO)NC(=O)[C@H](C)NC(=O)[C@H](Cc1ccc(O)cc1)NC(=O)[C@H](CCC(N)=O)NC(=O)[C@H](C)N)[C@@H](C)O)C(=O)N[C@@H](CO)C(=O)N[C@H](C(=O)O)C(C)C [3102.1314] (H-AQYASTLSV-OH) | 9.80 |
| CC(C)[C@H](NC(=O)[C@H](Cc1ccc(O)cc1)NC(=O)[C@H](CCCNC(=N)N)NC(=O)[C@@H](NC(=O)[C@H](CC(N)=O)NC(=O)[C@H](Cc1ccc(O)cc1)NC(=O)[C@H](CCCCN)NC(=O)[C@@H](N)CCCCN)C(C)C)C(=O)N[C@@H](Cc1ccccc1)C(=O)O [3102.1267] (H-KKYNVRYVF-OH) | 9.00 |
| CC[C@H](C)[C@H](NC(=O)[C@H](CCSC)NC(=O)[C@H](CC(=O)O)NC(=O)[C@H](CC(N)=O)NC(=O)[C@@H](NC(=O)[C@H](CCSC)NC(=O)[C@H](CCC(N)=O)NC(=O)[C@@H](N)CCCNC(=N)N)C(C)C)C(=O)N[C@@H](Cc1ccccc1)C(=O)O [3102.1102] (H-RQMVNDMIF-OH) | 8.89 |
| CSCC[C@H](NC(=O)[C@H](CO)NC(=O)[C@H](CCCNC(=N)N)NC(=O)[C@@H]1CCCN1C(=O)[C@H](Cc1ccccc1)NC(=O)[C@H](CCCCN)NC(=O)[C@H](CO)NC(=O)[C@H](CCCCN)NC(=O)[C@H](C)N)C(=O)O [3102.1076] (H-AKSKFPRSM-OH) | 9.59 |
| CC[C@H](C)[C@H](N)C(=O)N[C@@H](CCC(N)=O)C(=O)N[C@@H](CCCNC(=N)N)C(=O)N[C@H](C(=O)N[C@@H](Cc1ccc(O)cc1)C(=O)N[C@@H](CO)C(=O)N[C@@H](CO)C(=O)N[C@@H](CO)C(=O)N[C@H](C(=O)O)[C@@H](C)CC)[C@@H](C)O [3102.1209] (H-IQRTYSSSI-OH) | 9.08 |
| CC[C@H](C)[C@H](NC(=O)[C@@H](NC(=O)[C@H](CCC(=O)O)NC(=O)[C@H](Cc1ccccc1)NC(=O)[C@H](Cc1ccccc1)NC(=O)[C@H](CCCCN)NC(=O)[C@@H](N)CC(N)=O)C(C)C)C(=O)N[C@@H](Cc1ccccc1)C(=O)N[C@@H](Cc1ccccc1)C(=O)O [3102.1109] (H-NKFFEVIFF-OH) | 7.72 |
| CSCC[C@H](NC(=O)[C@@H](N)CCCNC(=N)N)C(=O)N[C@@H](Cc1ccccc1)C(=O)NCC(=O)N[C@@H](CO)C(=O)N[C@@H](CCCCN)C(=O)N1CCC[C@H]1C(=O)N[C@H](C(=O)N[C@@H](Cc1ccccc1)C(=O)O)[C@@H](C)O [3102.1247] (H-RMFGSKPTF-OH) | 9.68 |
| CC[C@H](C)[C@H](N)C(=O)N[C@@H](CO)C(=O)N[C@H](C(=O)N[C@@H](Cc1ccc(O)cc1)C(=O)N1CCC[C@H]1C(=O)NCC(=O)N[C@@H](CC(N)=O)C(=O)N[C@H](C(=O)N[C@@H](Cc1ccccc1)C(=O)O)[C@@H](C)O)[C@@H](C)O [3102.1229] (H-ISTYPGNTF-OH) | 9.32 |
| CC[C@H](C)[C@H](N)C(=O)N[C@@H](Cc1c[nH]cn1)C(=O)N[C@H](C(=O)N1CCC[C@H]1C(=O)N[C@@H](CCC(N)=O)C(=O)N[C@@H](CO)C(=O)N[C@@H](CCC(N)=O)C(=O)N[C@@H](CC(C)C)C(=O)N[C@@H](Cc1ccccc1)C(=O)O)[C@@H](C)CC [3102.1155] (H-IHIPQSQLF-OH) | 8.26 |
| CC[C@H](C)[C@H](N)C(=O)N[C@@H](CCCCN)C(=O)N[C@H](C(=O)N[C@H](C(=O)N[C@@H](C)C(=O)N[C@@H](C)C(=O)N[C@@H](CO)C(=O)N1CCC[C@H]1C(=O)N[C@@H](CCSC)C(=O)O)[C@@H](C)O)C(C)C [3102.1251] (H-IKVTAASPM-OH) | 8.55 |
| CC[C@H](C)[C@H](NC(=O)[C@H](CO)NC(=O)[C@H](CO)NC(=O)[C@H](CCC(=O)O)NC(=O)[C@H](CC(N)=O)NC(=O)[C@H](Cc1ccccc1)NC(=O)[C@@H](NC(=O)[C@H](CCC(N)=O)NC(=O)[C@@H](N)Cc1ccccc1)C(C)C)C(=O)O [3102.1082] (H-FQVFNESSI-OH) | 8.30 |
| CC[C@H](C)[C@H](N)C(=O)N[C@@H](CO)C(=O)N[C@@H](CO)C(=O)N[C@@H](CCCNC(=N)N)C(=O)N[C@@H](CCC(=O)O)C(=O)N[C@@H](CO)C(=O)N[C@H](C(=O)N[C@@H](CO)C(=O)N[C@@H](Cc1ccccc1)C(=O)O)C(C)C [3102.1068] (H-ISSRESVSF-OH) | 7.92 |
| CC[C@H](C)[C@H](NC(=O)[C@H](CCCCN)NC(=O)[C@@H](N)CCCNC(=N)N)C(=O)N[C@@H](CO)C(=O)N[C@@H](CO)C(=O)N[C@@H](CCCCN)C(=O)N[C@@H](CC(N)=O)C(=O)N[C@@H](CO)C(=O)N[C@@H](CCSC)C(=O)O [3102.1080] (H-RKISSKNSM-OH) | 9.96 |
| CC(C)C[C@H](NC(=O)[C@@H](N)CC(N)=O)C(=O)N[C@@H](Cc1ccc(O)cc1)C(=O)N[C@@H](Cc1ccccc1)C(=O)N[C@@H](CS)C(=O)N[C@H](C(=O)N[C@@H](CCCCN)C(=O)N[C@@H](CO)C(=O)N[C@@H](Cc1ccccc1)C(=O)O)[C@@H](C)O [3102.1057] (H-NLYFCTKSF-OH) | 8.37 |
| CSCC[C@H](NC(=O)[C@H](C)NC(=O)[C@H](CC(C)C)NC(=O)[C@H](CO)NC(=O)[C@H](CCCCN)NC(=O)[C@@H](N)CCSC)C(=O)N[C@H](C(=O)N[C@@H](C)C(=O)N[C@@H](Cc1ccccc1)C(=O)O)[C@@H](C)O [3102.1092] (H-MKSLAMTAF-OH) | 9.74 |
| CSCC[C@H](NC(=O)[C@H](C)NC(=O)[C@H](CCCCN)NC(=O)[C@@H](N)Cc1ccccc1)C(=O)N[C@@H](Cc1c[nH]c2ccccc12)C(=O)N[C@@H](CCCCN)C(=O)N[C@@H](Cc1ccc(O)cc1)C(=O)N1CCC[C@H]1C(=O)N[C@@H](Cc1ccccc1)C(=O)O [3102.1182] (H-FKAMWKYPF-OH) | 9.96 |
| N=C(N)NCCC[C@H](NC(=O)[C@H](CC(=O)O)NC(=O)[C@H](CCCCN)NC(=O)[C@H](CCC(=O)O)NC(=O)[C@H](Cc1ccccc1)NC(=O)[C@H](CCC(N)=O)NC(=O)[C@@H](N)CCCNC(=N)N)C(=O)N[C@@H](CO)C(=O)N[C@@H](Cc1ccccc1)C(=O)O [3102.1103] (H-RQFEKDRSF-OH) | 9.85 |
| CSCC[C@H](NC(=O)[C@@H](N)CCCCN)C(=O)N[C@H](C(=O)N[C@@H](CCCNC(=N)N)C(=O)N[C@H](C(=O)N[C@@H](Cc1ccccc1)C(=O)N[C@@H](CC(N)=O)C(=O)N[C@@H](CCCCN)C(=O)N[C@@H](Cc1ccccc1)C(=O)O)C(C)C)[C@@H](C)O [3102.1188] (H-KMTRVFNKF-OH) | 9.37 |
| CSCC[C@H](NC(=O)[C@H](CCCCN)NC(=O)[C@@H](N)CCCCN)C(=O)N[C@@H](CCC(N)=O)C(=O)N[C@@H](CO)C(=O)N[C@@H](Cc1ccc(O)cc1)C(=O)N[C@@H](CC(N)=O)C(=O)N[C@@H](CO)C(=O)N[C@H](C(=O)O)C(C)C [3102.1143] (H-KKMQSYNSV-OH) | 8.55 |
| CC(C)C[C@H](N)C(=O)N[C@@H](CCCCN)C(=O)N[C@H](C(=O)N[C@H](C(=O)N[C@@H](Cc1ccccc1)C(=O)N[C@H](C(=O)N[C@@H](Cc1c[nH]cn1)C(=O)N1CCC[C@H]1C(=O)N[C@@H](Cc1ccccc1)C(=O)O)C(C)C)[C@@H](C)O)[C@@H](C)O [3102.1294] (H-LKTTFVHPF-OH) | 8.89 |
| CC(C)[C@H](NC(=O)[C@H](Cc1c[nH]cn1)NC(=O)[C@H](CCC(N)=O)NC(=O)CNC(=O)[C@H](Cc1ccccc1)NC(=O)[C@H](CS)NC(=O)[C@H](CC(N)=O)NC(=O)[C@H](C)NC(=O)[C@H](C)N)C(=O)O [3102.1133] (H-AANCFGQHV-OH) | 7.66 |
| CC[C@H](C)[C@H](NC(=O)[C@H](CO)NC(=O)[C@H](C)NC(=O)[C@H](Cc1ccccc1)NC(=O)[C@H](CO)NC(=O)CNC(=O)[C@H](CO)NC(=O)[C@@H](N)Cc1ccccc1)C(=O)N[C@@H](Cc1ccccc1)C(=O)O [3102.1222] (H-FSGSFASIF-OH) | 9.49 |
